Experimental data as given in patent US20220243177A1, “METHODS OF CULTURING QUIESCENT HEMATOPOIETIC STEM CELLS AND TREATMENT METHODS” (priority 2019, published 2022).

Experiments:
HSCs (LSK CD150+CD48-) = experiment: Mitochondrial membrane potential (TMRE) by flow cytometry; format: cell-based, mouse
Experimental: To measure mitochondrial membrane potential (“MMP”), Tetramethylrhodamine ethyl ester perchlorate (“TMRE”, 100 nM), which specifically accumulates within the mitochondrial matrix of live cells, was used in accordance with the manufacturer's instructions. In brief, cells were stained with the probe at 37° C. for 15 minutes post antibody staining, followed by washing and flow cytometry analysis or FACS purification. Probe responsiveness to MMP changes were tested using controls carbonyl cyanide 3-chlorophenylhydrazone (“CCCP”) and oligomycin, which decreased and increased fluorescence of TMRE respectively. MMP-low and MMP-high thresholds were determined as the lowest and highest 25% TMRE intensity HSCs. Reactive oxygen species (“ROS”) were measured using chloromethyl-dichlorodihydrofluorescein diacetate (“CM-H2DCFDA”) fluorescent probe as described in Rimmele et al., “Mitochondrial Metabolism in Hematopoietic Stem Cells Requires Functional FOXO3,”EMBO Rep. 16: 1164-1176 (2015); Yalcin et al., “ROS-Mediated Amplification of AKT/mTOR Signalling Pathway Leads to Myeloproliferative Syndrome in Foxo3(-/-) Mice,” EMBO J. 29: 4118-4131 (2010); and Yalcin et al., “Foxo3 Is Essential for the Regulation of Ataxia Telangiectasia Mutated and Oxidative Stress-mediated Homeostasis of Hematopoietic Stem Cells,” J. Biol. Chem. 283: 25692-25705 (2008), which are hereby incorporated by reference in their entirety. Flow cytometry acquisition was performed on the BD LSRII, while cell sorting was performed on the BD Influx. All flow cytometry analyses and quantification were done using FlowJo 10 (Treestar).

[1] = tested on: MMP-low and MMP-high HSCs; experiment: Autophagic vacuole formation / lysosomal localization of mitochondria (confocal immunofluorescence); format: cell-based, mouse; parameters: number of autolysosomes (LC3 co-localization with LAMP1) / co-localization of TOM20 with LAMP1 in MMP-low and MMP-high HSCs: dose or concentration left out as unconfirmed
From the text: Immunofluorescence Staining, Imaging, and Analysis—Super Resolution Confocal Microscopy: Images were acquired with a Zeiss LSM 880 confocal microscope equipped with Airyscan Super Resolution Imaging module, using a 100×/1.46 Alpha Plan Apochromat objective lens (Zeiss MicroImaging, Jena, Germany) with “optimal” (Nyquist) XY scaling. Z stacks through the entire cell were acquired at an […] (at least 20 optical sections) using a pixel dwell time of >50 microseconds and field dimensions of […] (20 MMP-low and 20 MMP-high HSCs analyzed). This was followed by Airyscan image processing (set at auto but rarely over 6.2) and analyses using ZEN image acquisition and processing software (ZEN blue/black). Maximum intensity projections shown in the figures were also obtained using ZEN Blue software.
Lysosomal Localization of Mitochondria. FACS-sorted MMP-low and MMP-high HSCs (LSKCD150^+CD48^-MMP-low/-high) were treated with DMSO control or leupeptin […] for 4 hours. HSCs were then fixed and imaged for TOM20 (mitochondria) and LAMP1 (lysosomes).
Autophagic Vacuole Formation. Accumulation of autophagy substrates, Translocase of outer membrane 20 (TOM20) or Map11c3a (LC3), was determined in the presence of amino acid-containing (DMSO) or -starved amino acid-depleted media, v-ATPase inhibitor concanamycin A (ConA 40nM), inhibitor of autophagosome-autolysosome fusion chloroquine (CQ, […]), or protease inhibitor, leupeptin […] following guidelines outlined for study of autophagy (Klionsky et al., “Guidelines for the Use and Interpretation of Assays for Monitoring Autophagy (3rd Edition),” Autophagy 12(1): 1-222 (2016) and Martinez-Lopez et al., “Autophagy Proteins Regulate ERK Phosphorylation,” Nat. Commun. 4: 2799 (2013), which are hereby incorporated by reference in their entirety). In brief, FACS-sorted
MMP-low and MMP- high HSCs were cultured in the presence or absence of indicated inhibitors for 4, 5, or 18 hours following which cells were subjected to immunofluorescence assays for TOM20, LC3 and/or LAMP1 or LAMP2 as described above. Analyses were performed to quantify the turnover of indicated protein in lysosomes by evaluating the accumulation of TOM20 or LC3 in the presence versus absence of an inhibitor. TOM20 and LC3 flux were determined by subtracting the colocalized value of inhibitor-untreated TOM20 or LC3 with LAMP1 from corresponding inhibitor-treated values. Images were captured using a Zeiss LSM880 Airyscan confocal microscope using 100 X objectives (Leica), and percentage colocalization was calculated using the JACoP plugin (NIH ImageJ).
Mitochondrial and Lysosome Morphology: Freshly isolated HSCs were analyzed for mitochondrial morphology. Each individual HSC (150 total) was analyzed by using Arivis Vision 4D software and classified as either fragmented or not fragmented in accordance with number of surfaces. Cells that fulfilled the definition of ‘fragmented’ contained 3 or more individual mitochondrial surfaces (Kask et al., “Fluorescence-intensity Distribution Analysis and Its Application in Biomolecular Detection Technology,” Proc. Natl. Acad. Sci. USA 96(24): 13756-13761 (1999), which is hereby incorporated by reference in its entirety). Lysosomes' fluorescence intensity or area profiling was calculated using ImageJ software enabling the detection of fluorescently labeled […] boundaries (lysosomal marker LAMP1), as reflected by sharp increases or decreases in fluorescence intensity. Channels displaying fluorescence for either mitochondria or lysosomes were thresholded with the IsoData option to delimit the boundaries of mitochondrial networks and lysosome morphology. The resulting outlines were measured using the analyzed particles option to determine the size of distinct particles representing mitochondrial networks or lysosomes. More than 50 cells/condition/experiment were analyzed for lysosomes. […]

[2] = tested on: MMP-low and MMP-high HSCs; experiment: LT-HSCs maintenance assay (viability, DAPI exclusion); format: cell-based
Experimental: LT-HSCs Maintenance Assay: FACS-purified MMP-low and MMP-high HSCs cells were cultured in serum-free Stemspan medium supplemented with SCF (10 ng/mL) and TPO (20 ng/mL), cultured as single or 1,000 yells or 2,000 cells/well, and treated with ConA (10-100 nM), or 2-Deoxy-Glucose (2-DG; 5-60 mM), α-Cyano-4-hydroxycinnamic acid (CHC, 10 mM), or 0.5% DMSO, incubated at 37° C. for the indicated time. Cells were then washed twice in PBS, re-suspended in PBS containing 1 μg/ml DAPI, and analyzed by flow cytometry after DAPI exclusion.

HSCs of treated mice = experiment: In vivo glycolytic inhibition; parameters: species or system mouse
Experimental: In vivo Glycolytic Inhibition. To assess the effect of inhibition of glycolysis on MMP in HSCs, mice received intraperitoneal injections of either PBS or 2-DG 750 mg/kg every other day for 6 days after which total BM cells […] cells were isolated and MMP analyzed by flow cytometry in HSCs.

[3] = tested on: MMP-low and MMP-high LT-HSCs transplanted into lethally irradiated mice; format: in vivo
Experimental: Competitive In Vivo Long-Term Reconstitution Assay: MMP-low and MMP-high HSCs (LSKCD150^+CD48^−, LT-HSC; MMP^low/high) were FACS purified from CD45.1 mice and transplanted at the indicated dose of test cells with 2×10^5 CD45.2 bone marrow cells into lethally irradiated CD45.2 recipients (12 Gy as a split dose, 6.5 and 5.5 Gy, 4 hours apart). Donor (CD45.1) and recipient (CD45.2) mice were 8-12 weeks old. HSC frequency was determined by the limiting dilution assay (Hu & Smith, “ELDA: Extreme Limiting Dilution Analysis for Comparing Depleted and Enriched Populations in Stem Cell and Other Assays,” J. Immunol. Methods 347:7 0-78 (2009), which is hereby incorporated by reference in its entirety) based on the number of mice with […] reconstitution (CD45.1) at 16 weeks.
To assay the effect of glycolytic inhibition of HSCs in a competitive in vivo long-term reconstitution assay: FACS-sorted MMP-low and MMP-high LT-HSCs (CD45.1) were mixed with 2×10^5 CD45.2 total bone marrow cells and injected into lethally irradiated CD45.2 recipients. After 2 days mice were divided into four groups, MMP-low and MMP-high groups treated with PBS or 2-Deoxy-Glucose (2-DG, 1000 mg/kg) every other day for 30 days. Reconstitution of donor CD45.1 cells and lineage distribution were monitored monthly by staining blood cells with antibodies against CD45.1, CD4, CD8 (T), B220 (B), CD11b and Gr-1 (myeloid) cells. For secondary transplantations, 2×10^6 BM cells from primary recipients were transplanted into lethally irradiated secondary recipients. Donor CD45.1 cells contribution and lineage distribution were tracked from the peripheral blood by flow cytometry.

[4] = tested on: MMP-low and MMP-high HSCs; experiment: Glucose uptake assay (2NBDG); format: cell-based, mouse; details: STF-31 (10, 20 μM), 18 hours
Experimental: Glucose Uptake Assay: For measurement of glucose uptake, freshly FACS-purified MMP-low and MMP-high HSCs (at least 2,000 cells pooled in average from 8 mice) were cultured immediately in […] of glucose, glutamine, pyruvate free medium containing 100 or 200 μM 2-(n-(7-nitrobenz-2-oxa-1,3-diazol-4-yl amino)-2-deoxyglucose (2-NBD-Glucose, 2NBDG) for 2 hours. Cells were then washed multiple times in PBS, re-suspended in PBS containing 1 μg/ml DAPI, and analyzed by flow cytometry for 2-NBD glucose fluorescence in the FITC channel. In some experiments cells were cultured in StemSpan medium (StemCell Technology) supplemented with SCF (100 ng/ml) and TPO (20 ng/ml), treated with or without STF-31 ([…]), ConA (25, 50 nM), dimethyl alpha ketoglutarate (MOG, 1 mM), methyl pyruvate (MP, 1 mM) or DMSO, incubated at 37° C. in a humidified atmosphere with 5% CO2 for 6 or 18 hours before removing culture medium from each well, washing extensively and adding […] of glucose, glutamine, pyruvate free medium containing […] of 2 NBDG for 2 hours before washing cells multiple times in PBS and analyzing by flow cytometry. Quantification of 2NBDG uptake was measured by the geometric mean fluorescence intensity (“MFI”) as well as % of 2NBDG^+ cells.

[5] = recipients treated with 2-DG 1,000 mg/kg every other day for 30 days, after 4 months

`CC[C@H]1/C=C/C=C/C[C@@H](C)[C@H](O)[C@@](C)(O)C(=O)[C@@H](C)[C@H](O)[C@@H](C)C(=O)[C@@H](C)[C@H](O)[C@@H](C)/C=C/C(=O)O[C@@H]2[C@H](C)[C@H](CC1)O[C@]1(CC[C@H](C)[C@H](C[C@@H](C)O)O1)[C@H]2C` [oligomycin] was tested, and the “fluorescence of TMRE (probe responsiveness control)” value (HSCs (LSK CD150+CD48-)) was “increased”.

In the case of `CC(=O)N[C@@H](CC(C)C)C(=O)N[C@@H](CC(C)C)C(=O)N[C@H](C=O)CCCNC(=N)N` [leupeptin], the “co-localization of TOM20 with LAMP1 in MMP-low and MMP-high HSCs” value ([1]; 4 h) is reported as “enhanced similarly”, the “increase in LC3-positive puncta, MMP-high HSCs” value ([1]; 4 h) is reported as 3.6 fold and the “increase in LC3-positive puncta, MMP-low HSCs” value ([1]; 4 h) is reported as 1.6 fold. For the same compound, the “number of autolysosomes (LC3 co-localization with LAMP1)” value ([1]; 4 h) was “greater number of autolysosomes”, the “autolysosomal degradation (colocalization of LAMP1 with LC3)” value ([1]; ConA 40 nM, leupeptin 100 mM, chloroquine 40 mM, 18 hours, MMP-low and MMP-high HSCs) was “dramatically prevented autolysosomal degradation” and the “size of lysosomes in HSCs” value ([1]; leupeptin, more evident in MMP-high HSCs) was “further increased the size of lysosomes”.

In the case of `COc1ccc(CCN(C)CCCC(C#N)(c2ccc(OC)c(OC)c2)C(C)C)cc1OC` (stereo not shown) [Verapamil], the “TMRE levels or proportion of MMP-low HSCs” value (HSCs (LSK CD150+CD48-); Verapamil 25 μM, 50 μM, MRP inhibition) is reported as “did not modulate significantly”.

In the case of `O=CC[C@@H](O)[C@H](O)[C@H](O)CO` [2-DG, 2-Deoxy D-Glucose], the “effect on MMP-low HSCs (viability)” value ([2]; 2-DG 50 mM, 12 hours) is reported as “did not have much of an effect”, the “death of MMP-high HSCs after 24 h” value ([2]; 2-DG 50 mM, 24 h, not in MMP-low) is reported as “even more pronounced” and the “MMP-high HSCs died” value ([2]; 2-DG 50 mM, within 12 hours) is reported as “over 60%”. The “cellular viability after in vivo treatment” value (HSCs of treated mice; 2-DG 750 mg/kg every other day for 6 days) was “did not have much of an effect”, the “overall MMP levels in long-term HSCs” value (HSCs of treated mice; 2-DG 750 mg/kg every other day for 6 days, intraperitoneal) was “slightly but significantly reduced” and the “glucose uptake in HSCs with the highest MMP levels” value (HSCs of treated mice; in vivo 2-DG, 6 days) was “reduced glucose uptake”. For the same compound, the “lineage output in recipients of MMP-high HSCs” value ([3]; 2-DG-treated recipients) was “balanced production of blood”, the “systemic effect in the blood of transplanted mice” value ([3]; long-term (up to 16 weeks), normal diet) was “no systemic effect was detected” and the “enhancement of in vivo competitive repopulation ability of MMP-high HSCs” value [3, 5] was “over 70 fold”. The “in vivo competitive repopulation ability of MMP-low HSCs” value [3, 5] was “only subtle effects”.

With `CC(C)(C)c1ccc(S(=O)(=O)NCc2ccc(C(=O)Nc3cccnc3)cc2)cc1` [Glut1 inhibitor, STF-31] the “glucose uptake in MMP-high HSCs” value [4] was “decreased glucose uptake”.

With `N#CC(C#N)=NNc1cccc(Cl)c1` [CCCP, carbonyl cyanide 3-chlorophenylhydrazone] the “fluorescence of TMRE (probe responsiveness control)” value (HSCs (LSK CD150+CD48-)) was “decreased”.

For `N#CC(=Cc1ccc(O)cc1)C(=O)O` [CHC, a-cyano-4-hydroxycinnamate], the “decrease of survival in MMP-high HSCs” value ([2]; 10 mM CHC, 6 hours) was 80% and the “effect on survival of MMP-low HSCs” value ([2]; 10 mM CHC, 6 hours) was “negligible effect”.
